Tests used:
[1] = system: CFA-induced mechanical hyperalgesia in rats; experiment: CFA-induced mechanical hyperalgesia in rats; assay type: in vivo, rat; conditions: male CD rats, dose 10^-5 mol/kg, test 23 hours after injecting the CFA, 1 h after treatment; vehicle 120 ± 6.1, normal animals 155±2.1 g
Source text: 1. CFA-induced Mechanical Hyperalgesia in Rats
Male CD rats weighing 150-200 g on arrival were used.
By means of an analgesimeter, rats with a response threshold to a mechanical nociceptive stimulus in the range from 150 to 180 g were selected. By applying a gradual increase in pressure onto the dorsal region of the left hind paw of the rat, the instrument makes it possible to record the nocifensive response, expressed in grams, corresponding to the moment at which the animal retracts the paw [Randall L O and Selitto J J. A method for the measurement of analgesic activity on inflamed tissue. Arch. Int. Pharmacodyn. Ther. 1957; 111: 409-419].
The hyperalgesia was induced by unilateral injection of 150 μl of “Complete Freund's Adjuvant” (CFA) into the surface of the left hind paw of the animal [Andrew D, Greenspan J D. Mechanical and heat sensitization of cutaneous nociceptors after peripheral inflammation in the rat. J Neurophysiol. 1999; 82(5): 2649-2656; Hargreaves K, Dubner R, Brown R, Flores C, Joris J. A new and sensitive method for measuring thermal nociception in cutaneous hyperalgesia. Pain 1988; 32: 77-88].
The test compounds were tested (dose: 10^−5 mol/kg) by performing the test 23 hours after injecting the CFA.
One hour after the treatment, the pain threshold measured in control animals was compared with that measured in animals treated with the test product. The control animals were treated with the same vehicle (water) used for administering the test products.

[2] = system: Mechanical hyperalgesia in rats with streptozotocin-induced diabetes (diabetic neuropathy); experiment: Mechanical hyperalgesia in rats with streptozotocin-induced diabetes; assay type: in vivo, rat; conditions: male CD rats, dose 10^-5 mol/kg, 2 h after treatment, vehicle 114 ± 2.7, normal animals 240±8.7 g
Procedure: 2. Mechanical Hyperalgesia in Rats with Streptozotocin-induced Diabetes
Male CD rats weighing 240-300 g on arrival were used.
The diabetic syndrome was induced by means of a single intraperitoneal (i.p.) injection of 80 mg/kg of streptozotocin dissolved in sterile physiological solution [Courteix C, Eschalier A, Lavarenne J. Streptozotocin-induced diabetic rats: behavioural evidence for a model of chronic pain. Pain, 1993; 53: 81-88; Bannon A W, Decker M W, Kim D J, Campbell J E, Arneric S P. ABT-594, a novel cholinergic channel modulator, is efficacious in nerve ligation and diabetic neuropathy models of neuropathic pain. Brain Res. 1998; 801:158-63].
At least three weeks after the injection of streptozotocin, rats with a level of glycemia≧300 mg/dl and with a response threshold to a mechanical nociceptive stimulus ≦120 g were selected. The glycemia levels were measured by means of a reflectometer, using reactive strips impregnated with glucose oxidase. The pain threshold was measured using an analgesimeter. By applying a gradual increase in pressure onto the dorsal area of the left hind paw of the rat, the instrument makes it possible to record the nocifensive response, expressed in grams, corresponding to the moment at which the animal retracts the paw.
Two hours after the treatment, the pain threshold measured in control animals was compared with that measured in animals treated with the test product (dose: 10^−5 mol/kg).
The control animals were treated with the same vehicle (water) used for administering the test products.

For `Cl.O=C(CN1CCC(CNC(=O)c2nn(Cc3ccccc3)c3ccccc23)CC1)Nc1ccccc1` [AF3R277, N3-((1-(2-oxo-2-(phenylamino)ethyl)-4-piperidyl)methyl)-1-benzyl-1H-indazole-3-carboxamide hydrochloride], which “Pain threshold (g) 1 h after the treatment” value (“Pain threshold (g) 1 h” for short) [1] is on record?
The value was 170 ± 10.7 g.

What about the “Pain threshold (g) 2 h after the treatment” value (from here on “Pain threshold (g) 2 h”) [2] of the same compound?
The value was 188 ± 11.0 g.

What does the source list for `Cc1ccc2[nH]nc(C(=O)NCC3CCN(CC(=O)Nc4ccccc4)CC3)c2c1.Cl` [AF3R295, 5-methyl-N-3-((1-(2-oxo-2-(phenylamino)ethyl)-4-piperidyl)methyl)-1H-indazole-3-carboxamide hydrochloride]?
Pain threshold (g) 1 h after the treatment [1]: 202 ± 17.0 g; Pain threshold (g) 2 h after the treatment [2]: 212 ± 14.6 g

For `CC(C)n1nc(C(=O)NCC2CCN(CC(=O)Nc3ccccc3)CC2)c2ccccc21.Cl` [AF3R172, N3-((1-(2-oxo-2-(phenylamino)ethyl)-4-piperidyl)methyl)-1-(1-methylethyl)-1H-indazole-3-carboxamide hydrochloride], which “Pain threshold (g) 1 h” value [1] is on record?
Its value is 175 ± 10.2 g.

What about the “Pain threshold (g) 2 h” value [2] of the same compound?
Its value is 186 ± 13.0 g.

Which results are given for `CC(C)n1nc(C(=O)NCC2CCN(CC(=O)Nc3ccc([N+](=O)[O-])cc3)CC2)c2ccccc21` [AF3R335, N3-((1-(2-oxo-2-((4-nitrophenyl)amino)ethyl)-4-piperidyl)methyl)-1-(1-methylethyl)-1H-indazole-3-carboxamide]?
Pain threshold (g) 1 h after the treatment [1]: 168 ± 6.8 g; Pain threshold (g) 2 h after the treatment [2]: 180 ± 13.0 g

How did the “Pain threshold (g) 1 h” value [1] turn out when `CC(C)n1nc(C(=O)NCC2CCN(CC(=O)Nc3ccc(N(C)C)cc3)CC2)c2ccccc21.Cl.Cl` [AF3R301, N3-((1-(2-oxo-2-((4-(dimethylamino)phenyl)amino)ethyl)-4-piperidyl)methyl)-1-(1-methylethyl)-1H-indazole-3-carboxamide dihydrochloride] was run?
The value was 151 ± 10.7 g.

What about the “Pain threshold (g) 2 h” value [2] of the same compound?
Its value is 201 ± 13.8 g.

Which “Pain threshold (g) 1 h” value [1] does the source give for `CC(C)n1nc(C(=O)NCC2CCN(CC(=O)Nc3ccc(N)cc3)CC2)c2ccccc21.Cl.Cl` [AF3R292, N3-((1-(2-oxo-2-((4-aminophenyl)amino)ethyl)-4-piperidyl)methyl)-1-(1-methylethyl)-1H-indazole-3-carboxamide dihydrochloride] here?
The value was 154 ± 11.5 g.

What about the “Pain threshold (g) 2 h” value [2] of the same compound?
The value was 202 ± 8.7 g.

With `Cc1cccc(C)c1NC(=O)CN1CCC(CNC(=O)c2nn(C(C)C)c3ccccc23)CC1.O=C(O)C(=O)O` [AF3R305, N3-((1-(2-oxo-2-((2,6-dimethylphenyl)amino)ethyl)-4-piperidyl)methyl)-1-(1-methylethyl)-1H-indazole-3-carboxamide oxalate] as the compound, how does the “Pain threshold (g) 1 h” value [1] read?
Its value is 174 ± 8.4 g.

What about the “Pain threshold (g) 2 h” value [2] of the same compound?
The value was 189 ± 9.2 g.

`Cc1ccc(S(=O)(=O)O)cc1.O=C(CN1CCC(CNC(=O)c2n[nH]c3ccccc23)CC1)Nc1ccccc1` [AF3R276, N3-((1-(2-oxo-2-(phenylamino)ethyl)-4-piperidyl)methyl)-1H-indazole-3-carboxamide tosylate] was tested. Which “Pain threshold (g) 1 h” value [1] did it give?
Its value is 185 ± 15.9 g.

What about the “Pain threshold (g) 2 h” value [2] of the same compound?
Its value is 210 ± 10.9 g.

Which “Pain threshold (g) 1 h” value [1] does the source give for `Cc1ccc2c(c1)c(C(=O)NCC1CCN(CC(=O)Nc3ccccc3)CC1)nn2C(C)C.Cl` [AF3R299, 5-methyl-N-3-((1-(2-oxo-2-(phenylamino)ethyl)-4-piperidyl)methy 1)-1-(1-methylethyl)-1H-indazole-3-carboxamide hydrochloride] here?
The value was 167 ± 8.5 g.

And the “Pain threshold (g) 2 h” value [2]?
The value was 200 ± 10.7 g.

Which results are given for `CC(C)n1nc(C(=O)NCC2CCN(CC(=O)Nc3ccc(OCc4ccccc4)cc3)CC2)c2ccccc21` [AF3R331, N3-((1-(2-oxo-2-((4-((phenylmethyl)oxy)phenyl)amino)ethyl)-4-piperidyl)methyl)-1-(1-methylethyl)-1H-indazole-3-carboxamide]?
Pain threshold (g) 1 h after the treatment [1]: 156 ± 8.7 g; Pain threshold (g) 2 h after the treatment [2]: 192 ± 11.5 g

`CC(C)n1nc(C(=O)NCC2CCN(CC(=O)Nc3ccc(O)cc3)CC2)c2ccccc21.Cl` [AF3R278, N3-((1-(2-((4-hydroxyphenyl)amino)-2-oxoethyl)-4-piperidyl)methyl)-1-(1-methylethyl)-1H-indazole-3-arboxamide hydrochloride] was tested. Which “Pain threshold (g) 1 h” value [1] did it give?
The value was 164 ± 10.2 g.

And the “Pain threshold (g) 2 h” value [2]?
Its value is 240 ± 16.5 g.
